According to US6958141B2, “Rhenium and technetium complexes containing a hypoxia-localizing moiety” (Bracco International B.V., priority 1991, dated 2005):

Tests used:
hypoxic border zone = experiment: Rat focal cerebral ischemia model (MCA occlusion), double-label autoradiography; format: in vivo, spontaneously hypertensive rats (SHR); details: SHR, injected 1 hour or five days after MCA occlusion, both time points
Experimental: A model of focal cerebral ischemia involving tandem occlusion of the internal carotid artery and the ipsilateral middle cerebral artery (MCA) in spontaneously hypertensive rats (SHR) was characterized using the double-label autoradiography procedure described in Example 10. […] Following surgery, which was performed under Halothane anesthesia, the rats were allowed to recover and one hour after the MCA occlusion, ^14C-deoxyglucose was injected as an IV bolus and timed arterial samples were obtained. Twenty-five minutes after ^14C-deoxyglucose injection, ^99mTcCl(DMG)32MP was injected as an IV bolus and the rat was sacrificed 15 seconds later. The brain was rapidly removed and sections and autoradiograms were obtained as described in Example 10. As found in Example 10 for the rabbit LAD occlusion model, the ischemic territory was bordered by a rim of tissue in which glycolysis was elevated. […] Nevertheless, it was clear that the ischemic region is surrounded by a border zone of increased glycolysis. In a second series of experiments, the ^99mTc complex of the ligand described in Example 1 and ^14C-deoxyglucose were co-injected 1 hour or five days after MCA occlusion.

[1] = tested on: hypoxic ischemic border zone; experiment: Rabbit focal myocardial ischemia model (LAD occlusion), double-label autoradiography; format: in vivo; details: permanent LAD coronary artery ligation, intravenous tracer, heart sections
Experimental: A model of focal myocardial ischemia in the rabbit was developed, using permanent ligation of the left anterior descending (LAD) coronary artery. The model consisted of two studies. In the first, relative regional myocardial blood flow (MBF) and relative regional myocardial rate of glucose metabolism (MMRgl) were determined by autoradiography using a double-label study with the flow tracer ^99mTcCl(CDO)3MeB (R. K. Narra et al., J. Nucl. Med., 1989; 30:1830-1837) and ^14C-deoxy-glucose for MMRgl (L. Sokoloff et al., J. Neurochem., 1977, 28, 897-916). ^14C-deoxyglucose and the ^99mTc-hypoxia-localizing tracer were administered to a second group of rabbits with LAD coronary artery occlusion.
After the surgical preparation and 20 minutes of LAD occlusion, ^14C-deoxyglucose (130-150 μCi) was injected as an intravenous bolus, and timed arterial blood samples were obtained. Twenty-five minutes later, ^99mTcCl(CDO)3MeB (10-12 mCi) was administered intravenously. Five minutes later, the rabbits were sacrificed by intravenous injection of Nembutal and potassium chloride. The heart was excised, frozen in liquid Freon-22, and 20 μm coronal sections obtained with a Microtome. Autoradiographs were obtained on all sections. For the first exposure (˜14 hours duration) of Kodak XAR film, extra heavy duty aluminum foil was interposed between the tissue and film to block completely the radiation emanating from ^14C to obtain the MBF information derived from ^99mTcCl(CDO)3MeB alone. After three days (to allow for decay of ^99mTc); a second autoradiograph was obtained without foil. The second exposure lasted 6-8 days, and,provided an image of the regional distribution of ^14C-deoxyglucose.
In a separate experiment using the rabbit LAD occlusion model and the double-label autoradiography procedures described above, the performance of the ^99mTc complex of the ligand described in Example 1 was compared to that of ^14C-misonidazole.

xanthine oxidase = biological target: T1, xanthine oxidase (Bos taurus, UniProt P80457); experiment: Reduction of the Tc nitroimidazole complexes by xanthine oxidase; format: biochemical; details: xanthine oxidase 1.25 units, hypoxanthine, pH 7.4, anaerobic (argon), up to 7 hours
T1 construct: purchased Boeringer (sic; Boehringer)
T1 sequence (P80457 whole entry): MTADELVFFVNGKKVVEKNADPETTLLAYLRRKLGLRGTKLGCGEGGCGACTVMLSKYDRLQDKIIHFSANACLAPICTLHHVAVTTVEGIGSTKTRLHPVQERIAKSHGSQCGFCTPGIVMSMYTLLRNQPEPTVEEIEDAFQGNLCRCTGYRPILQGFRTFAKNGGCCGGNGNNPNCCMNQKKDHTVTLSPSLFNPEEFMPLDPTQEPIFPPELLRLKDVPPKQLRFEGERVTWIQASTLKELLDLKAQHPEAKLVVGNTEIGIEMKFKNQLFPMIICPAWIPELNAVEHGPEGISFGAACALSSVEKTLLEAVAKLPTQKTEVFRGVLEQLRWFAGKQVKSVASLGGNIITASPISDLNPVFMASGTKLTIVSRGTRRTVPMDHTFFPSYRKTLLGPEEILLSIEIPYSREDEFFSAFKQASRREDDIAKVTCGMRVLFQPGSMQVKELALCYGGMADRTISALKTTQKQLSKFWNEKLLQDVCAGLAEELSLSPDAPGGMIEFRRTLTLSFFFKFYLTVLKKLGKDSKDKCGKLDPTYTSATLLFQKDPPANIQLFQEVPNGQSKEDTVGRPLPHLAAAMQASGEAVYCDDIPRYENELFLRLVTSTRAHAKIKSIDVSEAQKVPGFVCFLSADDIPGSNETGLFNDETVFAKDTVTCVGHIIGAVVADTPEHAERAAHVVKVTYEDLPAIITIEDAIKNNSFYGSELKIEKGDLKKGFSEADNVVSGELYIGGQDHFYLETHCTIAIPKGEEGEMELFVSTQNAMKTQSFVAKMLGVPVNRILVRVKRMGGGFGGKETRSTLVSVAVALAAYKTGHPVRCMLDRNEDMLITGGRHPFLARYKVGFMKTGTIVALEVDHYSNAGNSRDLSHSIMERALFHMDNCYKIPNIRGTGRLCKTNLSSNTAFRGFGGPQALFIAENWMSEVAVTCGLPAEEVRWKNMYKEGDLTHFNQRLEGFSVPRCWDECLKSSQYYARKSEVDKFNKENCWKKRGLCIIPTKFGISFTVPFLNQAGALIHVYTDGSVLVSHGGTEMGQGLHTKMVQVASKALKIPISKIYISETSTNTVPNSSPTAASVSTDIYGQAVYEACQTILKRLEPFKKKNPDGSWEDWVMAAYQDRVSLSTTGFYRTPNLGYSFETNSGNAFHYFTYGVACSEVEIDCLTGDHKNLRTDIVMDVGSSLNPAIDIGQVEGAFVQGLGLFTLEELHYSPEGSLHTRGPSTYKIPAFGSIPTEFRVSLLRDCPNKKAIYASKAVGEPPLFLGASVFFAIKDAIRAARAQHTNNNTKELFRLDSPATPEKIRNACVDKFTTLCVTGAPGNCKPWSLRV
Source text: The enzyme xanthine oxidase (in the presence of xanthine or hypoxanthine) is known to reduce the nitro group of such nitroimidazole-containing compounds as misonidazole and metronidazole (see for example P. D. Josephy, B. Palcic and L. D. Skarsgard,. “Reduction of Misonidazole and its Derivatives by Xanthine Oxidase”, Biochem. Pharmacol., 1981, 30, 849), and it has been postulated that such nitro reduction under anaerobic conditions is responsible for the selective trapping of these compounds in hypoxic tissue. Thus, a technetium or rhenium containing nitroimidazole complex should be capable of being reduced by xanthine oxidase under anaerobic conditions in the presence of hypoxanthine.
To a 2.5 mL quartz cuvette was added 0.25 micromoles of the ^99Tc-nitroimidazole complex of Example 6 or 6b in 125 μL of dimethylformamide, 1 mL of 0.01M hypoxanthine in pH 7.4 sodium phosphate buffer (0.1M), and 0.875 mL of 0.1M sodium phosphate buffer (pH 7.4) that contained 20 mg/L of disodium ethylenediamine tetraacetic acid (EDTA). The cuvette was sealed with a rubber septum, and purged with argon for 15 minutes to remove oxygen. To this was added 1.25 units of the enzyme xanthine oxidase (Boeringer) in 0.5 mL of deoxygenated pH 7.4 phosphate buffer. The cuvette was inverted to mix, and the UV/visible spectrum of the solution was recorded from 280 to 600 nm at 15 minute intervals.
It is believed that the disappearance of this nitro absorbance is due to reduction of the nitro group by xanthine oxidase.
In a parallel control reaction, the reagents above were mixed in the same fashion, but the ^99Tc complex of 3,3,9,9-tetramethyl-4,8-diazaundecane-2,10-dione dioxime (prepared by the method of Jurisson et al., Inorg. Chem., 1986, 25, 543) was substituted for the technetium complexes of Examples 6 or 6b.

[2] = Determination of reduction potential by cyclic voltammetry; format: physicochemical; details: for Epc(V): cyclic voltammetry in dimethylformamide at Hg, vs. Ag/AgNO3; for Reduction process: cyclic voltammetry in dimethylformamide
Experimental: The reduction potentials of misonidazole, ^99TcO(PnAO), and ^99Tc-hypoxia-localizing tracers were determined by cyclic voltammetry (C.V.) in dimethylformamide. […] The reference electrode was Ag/AgNO3 with an acetonitrile filling solution saturated with LiCl. The counter electrode was a platinum wire. Voltamograms at mercury were determined at scan rates of 50, 100, 200, and 500 mV/s.
The solutions used in C.V. studies contained test sample at a concentration of 0.2-0.7 mM and tetrabutylammonium tetrafluoroborate (Bu4NBF4) or tetrabutylammonium hexafluorophosphate (Bu4NPF6) supporting electrolyte at a concentration of 0.1M. The solution was deoxygenated by bubbling solvent-saturated nitrogen or argon through the solution for 15 minutes. Variations in the reference potential were accounted for by determining the C.V. of a Ru(acac)3 standard on a daily basis.

Epc(V) ([2]; first or only reduction listed)	Reduction process ([2]; first or only reduction listed)	Compound	uptake in brain autoradiograms (hypoxic border zone)	regional myocardial distribution pattern (autoradiography) [1]	absorbance peak at approximately 320 nm (nitroimidazole functionality), UV/visible spectral change (xanthine oxidase)	Epc(V) ([2]; second reduction listed)	Reduction process ([2]; second reduction listed)
		^14C-deoxyglucose [reference compound]	increased uptake in the hypoxic border zone relative to surrounding normoxic tissue	high uptake in the ischemic border zone			
−1.48 V	reversible	CC1=[N+](O)[99Tc-]23(=[O])[N](CC(O)C[N]2C1(C)C)C(C)(C)C(Cn1ccnc1[N+](=O)[O-])=[N+]3[O-] (stereo not drawn) [Example 6b, [^99Tc]Oxo[[6-hydroxy-3,3,9,9-tetramethyl-(2-nitro-1H-imidazo-1-yl)-4,8-diazaundecane-2,10-dione dioximato]-(3-)-N,N′,N″,N′″]technetium (V)]			decreased in intensity	−1.96 V	irreversible
−2.15 V	irreversible	CC1=[N+]([O-])[99Tc-]23(=[O])[N](CCC[N]2C(C)(C)C(C)=[N+]3O)C1(C)C [^99TcO(PnAO), Tc(V) Oxo 3,3,9,9-tetramethyl-4-8-diazaundecane-2,10-dione-dioxime, reference compound]			no spectral changes were observed over a period of 7 hours		

Compound	Epc(V) ([2]; first or only reduction listed)	Reduction process ([2]; first or only reduction listed)	uptake in brain autoradiograms (hypoxic border zone)	regional myocardial distribution pattern (autoradiography) [1]	absorbance peak at approximately 320 nm (nitroimidazole functionality), UV/visible spectral change (xanthine oxidase)	Epc(V) ([2]; second reduction listed)	Reduction process ([2]; second reduction listed)
CC1=[N+](O)[99Tc-]23(=[O])[N](CCC[N]2C1(C)C)C(C)(C)C(Cn1ccnc1[N+](=O)[O-])=[N+]3[O-] [Example 6, [^99Tc]Oxo[[3,3,9,9-tetramethyl-1-(2-nitro-1H-imidazo-1-yl)-4,8-diazaundecane-2,10-dione dioximato]-(3-)-N,N′,N″,N′″]technetium(V)]	−1.49 V	reversible			decreased in intensity	−1.99 V	irreversible
